Assays:
E. coli [1] = experiment: Caco-2 cell transwell system, E. coli translocation (transcytosis); type: cell-based; conditions: inventors' determination
Experimental: Caco-2 cells derived from human adenocarcinoma cells which show all the morphological and functional characteristics of mature small intestinal epithelial cells after differentiation were employed in a number of experimental systems. Panigrahi et al., Development of an in vitro model for study of non-01 Vibrio cholerae virulence using Caco-2 cells, Infect. Immun., 58:3415-3424 (1990). Caco-2 cells were grown in DMEM supplemented with 1% nonessential amino acids, 1% sodium pyruvate, 10% fetal calf serum, 100 U penicillin and 100 μg of streptomycin/mL in a 5% CO2 atmosphere at 37° C. For transcytosis studies, 0.2×10^6 cells in 0.3 mL medium were seeded on the apical side of 0.6 cm^2 polycarbonate transwell filters/clusters (Costar, Cambridge, Mass.). […]
A Caco-2 cell transwell system was used in accordance with Panigrahi et al. (1990) and Panigrahi et al. (1994) to grow cells on a membrane allowing the measurement of bacteria that translocate. Briefly, Caco-2 cells were grown on polycarbonate filters in transwell cluster and TEER (trans-epithelial electrical resistance) was measured before and after treatment (1) with E. coli alone, (2) in a system deprived of glutamine, (3) in a system deprived of glutamine and later replenished with glutamine, and (4) in a system deprived of glutamine and treated with a Lactobacillus strain ATCC 202195 and glutamine composition. […]

E. coli [2] = experiment: E. coli adherence to gastro-intestinal mucosa; conditions: inventors' determination
E. coli [3] = conditions: cited from earlier work; for tissue injury and inflammatory cell infiltration: rabbit ileal loop model, U.S. Pat. No. 6,132,710
E. coli [4] = conditions: cited from earlier work; for adherence and translocation of Gram (−) organisms such as E. coli: Caco-2 cell culture model, U.S. Pat. No. 6,132,710

| Compound | effect on translocation of E. coli across mucosal layers (E. coli [1]) | effect on E. coli adherence to gastro-intestinal mucosa (E. coli [2]) | protection against Gram (−) bacteria-induced necrotizing enterocolitis (E. coli [3]; instillation of rabbit ileal loops with glutamine, U.S. Pat. No. 5,981,590) | bacterial translocation (E. coli [4]; glutamine supplied from the luminal (apical) side, U.S. Pat. No. 5,981,590) | tissue injury and inflammatory cell infiltration (E. coli [3]) | adherence and translocation of Gram (−) organisms such as E. coli (E. coli [4]) |
| --- | --- | --- | --- | --- | --- | --- |
| NC(=O)CC[C@H](N)C(=O)O [glutamine] | prevents translocation | does not have an effect | protects | reduce bacterial translocation | – | – |
| Lactobacillus | – | prevents initial steps | – | – | – | – |
| Lactobacillus plantarum | – | – | – | – | reduced | capable of blocking |
| Lactobacillus acidophilus | – | – | – | – | reduced | capable of blocking |
